Experimental findings from patent US20020155496A1, “Saturated and unsaturated abietane derivatives, derived conjugates and uses in a diagnostic composition, a reagent and a device” (priority 1998, published 2002) are described below.

In this test the test system is anti-abietic acid antibody. As to the kind of experiment: Competition ELISA assay with natural hormones (crossreaction of anti-abietic acid antibody). The test is classed as binding, mouse. The conditions noted are these: for inhibition / crossreaction in competition ELISA: increasing concentrations of hormone in 5 μg/ml anti-abietic acid antibody, abietic acid-ODN antigen phase, read at 492 nm. As for the experimental part:
The antigen phase was obtained as described in Example 11, and then increasing concentrations of hormone dissolved in a 5 μg/ml solution of anti-abietic acid antibody in PBS-Tween containing 10% by volume of horse serum are incubated for one hour at 37° C. After washes with PBS-Tween, an anti-mouse antibody antibody coupled to peroxidase, in solution in PBS-Tween-horse [lacuna] is incubated for one hour at 37° C. After washes, the enzymatic substrate, o-phenylenediamine, is added. The colorimetric reaction is stopped by adding 1N sulfuric acid. The intensity of the coloration is read at 492 nm on a bioMérieux Axia Micro-reader.

Each structure is given as a SMILES string.

With `N[C@@H](Cc1cc(I)c(Oc2cc(I)c(O)c(I)c2)c(I)c1)C(=O)O` [Example T4], the “inhibition / crossreaction in competition ELISA” value (shortened to “inhibition / crossreaction”) is on record as “crossreaction is observed”. For the same compound, the inhibition (concentration of 0.33 μmol/ml of hormone) is on record as 25%. Consider `CC(=O)[C@H]1CC[C@H]2[C@@H]3CCC4=CC(=O)CC[C@]4(C)[C@H]3CC[C@]12C` [progesterone], for which the “inhibition / crossreaction” value is “no inhibition”.

Regarding `C[C@]12CC[C@H]3[C@@H](CCC4=CC(=O)CC[C@@]43C)[C@@H]1CC[C@@H]2O` [testosterone], the “inhibition / crossreaction” value is given as “no inhibition”.

What is called inhibition is the drop in the measured response relative to a control, in per cent. A low value points to a weak effect.
